Common to all, as to assay type: cell-based
The target in one assay is T1, SLC22A4 (Homo sapiens, UniProt Q9H015).
T1 sequence (Q9H015 1-551): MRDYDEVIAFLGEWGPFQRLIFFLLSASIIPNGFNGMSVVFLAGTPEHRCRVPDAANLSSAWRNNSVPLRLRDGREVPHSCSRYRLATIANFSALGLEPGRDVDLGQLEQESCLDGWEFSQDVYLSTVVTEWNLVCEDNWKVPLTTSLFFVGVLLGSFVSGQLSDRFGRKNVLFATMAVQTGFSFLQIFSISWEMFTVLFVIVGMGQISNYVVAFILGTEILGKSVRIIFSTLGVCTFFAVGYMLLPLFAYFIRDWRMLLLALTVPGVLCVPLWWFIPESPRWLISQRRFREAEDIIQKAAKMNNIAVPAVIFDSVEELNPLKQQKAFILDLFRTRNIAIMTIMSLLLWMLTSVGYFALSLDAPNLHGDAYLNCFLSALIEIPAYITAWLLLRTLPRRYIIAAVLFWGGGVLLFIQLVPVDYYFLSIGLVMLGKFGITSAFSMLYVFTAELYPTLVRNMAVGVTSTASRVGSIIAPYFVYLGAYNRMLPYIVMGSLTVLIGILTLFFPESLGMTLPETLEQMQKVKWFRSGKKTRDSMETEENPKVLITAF
The experiment in a line: radiolabelled uptake in transfected HEK293 Flp-In cells.

The target in assay [1] is T2, SLC22A15 (Homo sapiens, UniProt Q8IZD6).
The target of assay [2] is T2, SLC22A15. The experiment in a line: radiolabelled uptake in transfected HEK293 Flp-In cells.

T2 sequence (Q8IZD6 whole entry): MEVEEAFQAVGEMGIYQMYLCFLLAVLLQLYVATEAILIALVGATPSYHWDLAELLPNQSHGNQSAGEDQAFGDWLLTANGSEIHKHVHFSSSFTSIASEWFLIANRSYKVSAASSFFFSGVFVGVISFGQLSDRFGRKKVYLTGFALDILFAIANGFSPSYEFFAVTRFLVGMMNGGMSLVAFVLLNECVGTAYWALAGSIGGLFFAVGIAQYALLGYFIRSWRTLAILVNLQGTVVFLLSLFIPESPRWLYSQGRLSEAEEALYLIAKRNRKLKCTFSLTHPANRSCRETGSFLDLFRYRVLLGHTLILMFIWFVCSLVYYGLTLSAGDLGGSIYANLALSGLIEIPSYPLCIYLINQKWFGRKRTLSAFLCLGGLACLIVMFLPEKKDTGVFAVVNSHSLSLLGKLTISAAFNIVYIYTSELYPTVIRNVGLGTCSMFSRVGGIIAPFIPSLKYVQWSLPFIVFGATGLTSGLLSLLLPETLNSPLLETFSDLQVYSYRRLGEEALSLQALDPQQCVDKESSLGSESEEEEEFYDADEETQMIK

For `C[N+](C)(C)[C@@H](Cc1c[nH]c(=S)[nH]1)C(=O)[O-]` [ergothioneine], the “radiolabelled uptake in transfected HEK293 Flp-In cells” value on SLC22A4 is “only SLC22A4 and SLC22A15 showed significant uptake of ergothioneine over EV cells (Fig. 3B)”.
`O=S(=O)(O)CCN1CCN(CCO)CC1` [HEPES, 4-(2-hydroxyethyl)-1-piperazineethanesulfonic acid] returned an IC50 at SLC22A15 [1] of 5.8 ± 1.4 mM.
On to `C[N+](C)(C)CC(=O)O` [betaine], for which the “radiolabelled uptake in transfected HEK293 Flp-In cells” value on SLC22A15 [2] was “highest fold-uptake over empty vector were the zwitterions: ergothioneine, carnosine and betaine”.
